The subject of assay [1] is T1, S. aureus.
T1 construct: NCTC 6571
More on the design: species or system Staphylococcus aureus NCTC 6571; broth growth inhibition, OD600, fitted MIC from dose curve, TSB, 37 C. Conditions: 16 h; inhibitor. As to the method:
Stock solutions of each compound were prepared in 50% DMSO/water at ×100 the final concentration. In a 96-well plate, 2 μL of the test compounds were added to each well. Each plate included the positive control (750 μg mL^−1 chloramphenicol), the negative control (50% DMSO/water) and media only wells. To each test well was then added 198 μL of the required bacteria stock (OD 0.05). E. coli assays were carried out using LB broth, S. aureus were carried out using tryptic soy broth (TSB). Plates were incubated at 37 °C and the OD600 was measured (Epoch 2 Microplate Spectrophotometer, BioTek) every 30 min over a 17 h period. Tests were carried out in triplicate, the background absorbance was removed using reference wells, and the averages were determined. Dose curves were plotting using the OD600 after 16 h growth vs. compound concentration. MICs were defined as the minimum concentration of compound at which no significant growth was observed after 16 h incubation. MIC values were determined using GraphPad Prism (version 8.3.0). The activity of 1–12 was investigated with growth assays against Staphylococcus aureus (NCTC 6571). S. aureus is a virulent Gram-positive pathogen that can cause a wide range of infections in humans.[29,30] Each compound was tested at 400–6 μM concentrations, with lower concentrations tested as required.

Assay [2] has as its system T2, E. coli (BW25113).
T2 construct: BW25113
Description: microbe, parasite or virus in culture. More on the design: minimum bactericidal concentration 50 on agar plates. Conditions: Escherichia coli, read-out: MBC50 E. coli (BW25113).

The test system of assay [3] is T3, S. aureus (NCTC 6571).
T3 construct: NCTC 6571
Kind of assay: microbe, parasite or virus in culture. More on the design: minimum bactericidal concentration 50 on agar plates. The settings on record: Staphylococcus aureus, NCTC6571; read-out: MBC50 S. aureus (NCTC 6571).

Assay [4] deals with T4, PBP4 (Bacillus subtilis, UniProt P32959).
T4 sequence (P32959 1-451): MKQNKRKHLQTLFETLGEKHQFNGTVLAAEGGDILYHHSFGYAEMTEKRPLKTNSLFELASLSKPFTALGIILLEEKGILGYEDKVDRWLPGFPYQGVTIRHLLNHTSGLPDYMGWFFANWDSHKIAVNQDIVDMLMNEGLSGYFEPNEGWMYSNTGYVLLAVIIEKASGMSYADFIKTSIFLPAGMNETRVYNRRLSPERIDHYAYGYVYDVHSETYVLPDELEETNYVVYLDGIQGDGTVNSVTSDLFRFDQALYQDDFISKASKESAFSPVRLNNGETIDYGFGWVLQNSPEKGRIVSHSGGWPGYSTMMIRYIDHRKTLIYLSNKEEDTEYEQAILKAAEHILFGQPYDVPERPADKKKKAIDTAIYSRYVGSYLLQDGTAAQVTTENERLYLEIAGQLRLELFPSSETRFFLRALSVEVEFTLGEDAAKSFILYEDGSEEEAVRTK
Kind of assay: biochemical. Further details: gene pbpE; commercial protein from Generon; fluorescent dye thermal shift assay, 500 nM PBP4 with 50 uM compound, delta Tm. The settings on record: read-out: Average DTm/°C. As for the experimental part: The thermal shift assay was carried out using the Protein Thermal Shift™ assay kit (Applied Biosystems). 3 μM of purified E. coli PBP3 was incubated with the β-lactam analogues at 300 μM concentration in a mixture containing the Protein Thermal Shift™ Dye. The samples were then heated in a StepOnePlus™ Real-Time PCR System from 25 to 95 °C at a rate of 1 °C min^−1. Tests were carried out in triplicate and the averages plotted as the negative first derivative vs. temperature. Reference wells, i.e. solutions consisting only of only PBP3 with dye, PBP3 only, and dye only, were used as controls. Melting temperature (Tm) values were determined with and without each compound, and the change in melting temperature (ΔTm) was obtained, Fig. 2. The thermal shift assay with PBP4 was carried out using the protocol described for PBP3, with the follow deriviatisation: 500 nM of purified Bacillus subtilis PBP4 was incubated with 50 μM of the β-lactam analogues. A thermal shift assay was used to investigate the binding of the cephalexin analogues to the therapeutic target, PBP, in vitro. This assay provides a fast and inexpensive method of detecting a ligand binding to a protein of interest. Briefly, the protein is gradually heated in the presence of a fluorescent dye that binds non-specifically to the hydrophobic surfaces. […] A change in the melting temperature (Tm) when the protein is heated in the presence of a ligand, indicates a protein–ligand interaction. […] The PBPs can be divided into two main categories: high molecular mass (HMM) and low molecular mass (LMM).[13] PBP3 was chosen as a representative HMM PBP, and PBP4 as a representative LMM PBP. Cephalexin (1) has been previously reported to show good binding affinities for both PBP3 and PBP4.[14] Penicillin (11) and cefpodoxime (12) were included as positive controls. AmpC (Uniprot ID: P00811) was purchased from Abcam plc (Cambridge, UK). PBP4 (Uniprot ID: P32959) was purchased from Generon (Slough, UK).

Values after ≈ are worked out from the molar mass of the structure shown.

As for `CC1=C(C(=O)O)N2C(=O)[C@@H](NC(=O)[C@H](N)c3ccccc3)[C@H]2SC1` [compound 1, cephalexin], the “MIC (S. aureus, best-fit)” value in assay [1] amounted to 1.89e-05 M (≈ 6.57 µg/mL). For the same compound, the MBC in assay [2] is over 400 µM; in assay [3] it was 400 µM (≈ 139 µg/mL). For the same compound, in assay [4], the ΔTm at 50 µM is -0.882 °C.

`CC1=C(C(=O)O)N2C(=O)[C@@H](NC(=O)[C@H](NC(=O)COCC(=O)NCCOCCOCCOCCOCCNC(=O)CCCCCN3C(=O)C=CC3=O)c3ccccc3)[C@H]2SC1` [compound 2, (6R,7R)-7-((R)-30-(2,5-Dioxo-2,5-dihydro-1H-pyrrol-1-yl)-4,8,25-trioxo-2-phenyl-6,12,15,18,21-pentaoxa-3,9,24-triazatriacontanamido)-3-methyl-8-oxo-5-thia-1-azabicyclo[4.2.0]oct-2-ene-2-carboxylic acid]: the “MIC (S. aureus, best-fit)” value in assay [1] was 9.255e-05 M (≈ 81 µg/mL). Besides, the MBC in assay [2] was over 400 µM; in assay [3], 200 µM (≈ 175 µg/mL). The ΔTm at 50 µM in assay [4] was -1.95 °C.

`CC1=C(C(=O)O)N2C(=O)[C@@H](NC(=O)[C@H](NC(=O)CCCCCN3C(=O)C=CC3=O)c3ccccc3)[C@H]2SC1` [compound 3, (6R,7R)-7-((R)-2-(6-(2,5-dioxo-2,5-dihyrdo-1H-pyrrol-1-yl)hexanamido)-2-phenylacetamido)-3-methyl-8-oxo-5-thia-1-azabicyclo[4.2.0]oct-2-ene-2-carboxylic acid]: in assay [1], the “MIC (S. aureus, best-fit)” value is listed as ~ 5.580e-005 M. For the same compound, the MBC was over 400 µM in assay [2] and 200 µM (≈ 108 µg/mL) in assay [3]. In addition, in assay [4], the ΔTm at 50 µM is -0.378 °C.

Consider `C#CCCC(=O)N[C@@H](C(=O)N[C@@H]1C(=O)N2C(C(=O)O)=C(C)CS[C@H]12)c1ccccc1` [compound 4, (6R,7R)-3-Methyl-8-oxo-7-[(2R)-2-(pent-4-ynamido)-2-phenylacetamido]-5-thia-1-azabicyclo[4.2.0]oct-2-ene-2-carboxylic acid], for which the “MIC (S. aureus, best-fit)” value in assay [1] is on record as ~ 3.501e-005 M. The results for the MBC in assay [2] and in assay [3] were over 400 µM and 50 µM (≈ 21.4 µg/mL), respectively. Moreover, in assay [4], the ΔTm at 50 µM is -0.853 °C.

Turning to `CC1=C(C(=O)O)N2C(=O)[C@@H](NC(=O)[C@H](NC(=O)CCCCC3CCSS3)c3ccccc3)[C@H]2SC1` (stereo partly drawn) [compound 5, (6R,7R)-7-[(2R)-2-[5-(1,2-Dithiolan-3-yl)pentanamido]-2-phenylacetamido]-3-methyl-8-oxo-5-thia-1-azabicyclo[4.2.0]oct-2-ene-2-carboxylic acid], the “MIC (S. aureus, best-fit)” value in assay [1] is 2.493e-05 M (≈ 13.4 µg/mL). The MBC in assay [2] was over 400 µM; in assay [3], 50 µM (≈ 26.8 µg/mL). In addition, the ΔTm at 50 µM in assay [4] was -0.464 °C.

Take `CC1=C(C(=O)O)N2C(=O)[C@@H](NC(=O)[C@H](NC(=O)CCCC(=O)ON3C(=O)CCC3=O)c3ccccc3)[C@H]2SC1` [compound 6, (6R,7R)-7-[(2R)-2-{5-[(2,5-Dioxopyrrolidin-1-yl)oxy]-5-oxopentanamido}-2-phenylacetamido]-3-methyl-8-oxo-5-thia-1-azabicyclo[4.2.0]oct-2-ene-2-carboxylic acid]: the “MIC (S. aureus, best-fit)” value in assay [1] was determined as 8.29e-05 M (≈ 46.3 µg/mL). The values for the MBC in assay [2] and in assay [3] were over 400 µM and 200 µM (≈ 112 µg/mL), respectively. Also, the ΔTm at 50 µM in assay [4] was -0.708 °C.

Consider `CC1=C(C(=O)O)N2C(=O)[C@@H](NC(=O)[C@H](NC(=O)CCCC(=O)O)c3ccccc3)[C@H]2SC1` [compound 7, (6R,7R)-7-[(2R)-2-(4-Carboxybutanamido)-2-phenylacetamido]-3-methyl-8-oxo-5-thia-1-azabicyclo[4.2.0]oct-2-ene-2-carboxylic acid], for which, in assay [1], the “MIC (S. aureus, best-fit)” value was 8.144e-05 M (≈ 37.6 µg/mL). The MBC in assay [2] was over 400 µM; in assay [3], 200 µM (≈ 92.3 µg/mL). Also, in assay [4], the ΔTm at 50 µM is -0.422 °C.

Regarding `CC(=O)N[C@@H](C(=O)N[C@@H]1C(=O)N2C(C(=O)O)=C(C)CS[C@H]12)c1ccccc1` [compound 8, (6R,7R)-7-[(2R)-2-Acetamido-2-phenylacetamido]-3-methyl-8-oxo-5-thia-1-azabicyclo[4.2.0]oct-2-ene-2-carboxylic acid], the “MIC (S. aureus, best-fit)” value in assay [1] is on record as ~ 5.897e-005 M. Moreover, the MBC in assay [2] was over 400 µM; in assay [3], 200 µM (≈ 77.9 µg/mL). Further, the ΔTm at 50 µM in assay [4] is -0.248 °C.

As for `CC1=C(C(=O)O)N2C(=O)[C@@H](NC(=O)[C@H](NC(=O)OC(C)(C)C)c3ccccc3)[C@H]2SC1` [compound 9, (6R,7R)-7-[(2R)-2-{[(Tert-butoxy)carbonyl]amino}-2-phenylacetamido]-3-methyl-8-oxo-5-thia-1-azabicyclo[4.2.0]oct-2-ene-2-carboxylic acid], in assay [1], the “MIC (S. aureus, best-fit)” value amounted to 1.097e-05 M (≈ 4.91 µg/mL). Moreover, the MBC was over 400 µM in assay [2] and 50 µM (≈ 22.4 µg/mL) in assay [3]. In addition, in assay [4], the ΔTm at 50 µM was -0.809 °C.

Take `CC1=C(C(=O)O)N2C(=O)[C@@H](NC(=O)[C@H](NC(=O)CCCCN)c3ccccc3)[C@H]2SC1` [compound 10, (6R,7R)-7-[(2R)-2-(5-Aminopentanamido)-2-phenylacetamido]-3-methyl-8-oxo-5-thia-1-azabicyclo[4.2.0]oct-2-ene-2-carboxylic acid]: the “MIC (S. aureus, best-fit)” value in assay [1] stood at 5.135e-05 M (≈ 22.9 µg/mL). For the same compound, the MBC in assay [2] was over 400 µM; in assay [3] it was 50 µM (≈ 22.3 µg/mL). Also, the ΔTm at 50 µM in assay [4] was -0.0272 °C.

For `COCC1=C(C(=O)O)N2C(=O)[C@@H](NC(=O)/C(=N\OC)c3csc(N)n3)[C@H]2SC1` [compound 12, cefpodoxime], the “MIC (S. aureus, best-fit)” value in assay [1] amounted to 2.094e-05 M (≈ 8.95 µg/mL). Further, the MBC in assay [2] and in assay [3] was 100 µM (≈ 42.7 µg/mL) each time. In addition, in assay [4], the ΔTm at 50 µM was -0.695 °C.
